These results are taken from PMC11239955, “Phase 1 pharmacokinetic and safety study of soticlestat in participants with mild or moderate hepatic impairment or normal hepatic function” (Pharmacology Research & Perspectives, 2024).

The nature of data set [1]: clinical. The conditions noted are these: human, in vivo. The procedure: This was a phase 1, open‐label study of a single dose of oral soticlestat 300 mg with three treatment arms (NCT05098054)[25]: moderate hepatic impairment (Child‐Pugh B; score ≥7 and ≤9; anticipated enrollment n = 8); mild hepatic impairment (Child‐Pugh A; score ≥5 and ≤6; n = 8); and normal hepatic function (n = 12–24). Screening occurred at an outpatient visit up to 28 days before dosing. Participants were admitted to the clinic the day before dosing and remained until day 7. Follow‐up phone contact occurred 14 ± 2 days after dosing.
The moderate hepatic impairment arm was conducted first, followed by the matched normal hepatic function arm. After enrollment of the mild hepatic impairment arm, up to 12 additional participants could be enrolled for the matched normal hepatic function group to ensure a minimum of 12 participants with normal hepatic function and matching the mean of the mild hepatic impairment arm by age, sex, and BMI. Soticlestat was taken as three 100 mg immediate‐release tablets on day 1 with approximately 240 mL water under fasting conditions (≥10 h before dosing and 4 h post‐dose).
(§1) Medical history and demographic data were recorded at screening. Twelve‐lead ECG, pulse rate, and BP were taken 2, 24, and 144 h after dosing or at early termination, and respiratory rate and temperature were taken 24 and 144 h after dosing or at early termination. Hematology, coagulation, serum chemistry, and urine analysis were conducted 48 and 144 h after dosing or at early termination. Blood samples for pharmacokinetic assessments of soticlestat and its metabolites M‐I and M3 were taken predose and 0.133, 0.25, 0.5, 0.75, 1, 1.5, 2, 4, 6, 8, 10, 14, 24, 36, 48, 72, 96, 120, and 144 h after dose administration or at early termination. Blood samples for plasma protein binding were taken predose and 0.5 and 10 h after dose administration. TEAE monitoring occurred throughout the study and at follow‐up.
The study's primary endpoints were the following pharmacokinetic parameters for soticlestat: C max; area under the total plasma concentration‐time curve from time 0 to infinity (AUC∞); and AUC from time 0 to time of the last quantifiable total plasma concentration (AUClast). The incidences of TEAEs and clinically significant abnormal values for laboratory evaluations, vital signs, ECG parameters, and Columbia‐Suicide Severity Rating Scale were secondary objectives. Exploratory endpoints were plasma pharmacokinetic parameters of soticlestat metabolites M‐I and M3 (C max, AUC∞, AUClast, metabolite‐to‐parent ratio [MPR] C max, MPR AUClast, and MPR AUC∞); additional plasma pharmacokinetic parameters of soticlestat and the metabolites M‐I and M3 (time of first occurrence of C max [t max] and terminal disposition phase half‐life [t ½z]); additional plasma pharmacokinetic parameters of soticlestat (apparent clearance after extravascular administration, calculated using the observed value of the last quantifiable total plasma concentration [CL/F]; apparent volume of distribution during the terminal disposition phase after extravascular administration, calculated using the observed value of the last quantifiable total plasma concentration [Vz/F]); and plasma protein binding of soticlestat: fraction of unbound soticlestat.
Total soticlestat, M‐I, and M3 concentrations and unbound soticlestat concentrations were determined using liquid chromatography–tandem mass spectrometry by CMIC, Inc. (Hoffman Estates, IL, USA). Unbound plasma soticlestat concentrations were measured using ultrafiltration (by CMIC, Inc.). Pharmacokinetic parameters were calculated using Phoenix® WinNonlin® version 8.3.4.
Descriptive statistics were derived for the concentration data: number of observations (n), arithmetic mean (mean), standard deviation (SD), arithmetic percent coefficient of variation (CV%), standard error of the mean, minimum, median, and maximum. […]

Data set [2] is described as follows: clinical. The conditions noted are these: human, plasma, Plasma protein binding, mean. It is filed as in vitro ADME. The procedure:
Medical history and demographic data were recorded at screening. Twelve‐lead ECG, pulse rate, and BP were taken 2, 24, and 144 h after dosing or at early termination, and respiratory rate and temperature were taken 24 and 144 h after dosing or at early termination. Hematology, coagulation, serum chemistry, and urine analysis were conducted 48 and 144 h after dosing or at early termination. […] Blood samples for plasma protein binding were taken predose and 0.5 and 10 h after dose administration. TEAE monitoring occurred throughout the study and at follow‐up. The study's primary endpoints were the following pharmacokinetic parameters for soticlestat: C max; area under the total plasma concentration‐time curve from time 0 to infinity (AUC∞); and AUC from time 0 to time of the last quantifiable total plasma concentration (AUClast). The incidences of TEAEs and clinically significant abnormal values for laboratory evaluations, vital signs, ECG parameters, and Columbia‐Suicide Severity Rating Scale were secondary objectives. […] Total soticlestat, M‐I, and M3 concentrations and unbound soticlestat concentrations were determined using liquid chromatography–tandem mass spectrometry by CMIC, Inc. (Hoffman Estates, IL, USA). Unbound plasma soticlestat concentrations were measured using ultrafiltration (by CMIC, Inc.). Pharmacokinetic parameters were calculated using Phoenix® WinNonlin® version 8.3.4.

Data set [3] is described as follows: Safety: treatment-emergent adverse events after single oral soticlestat 300 mg. The data set is classed as in vivo, human. The procedure:
as §1
The study's primary endpoints were the following pharmacokinetic parameters for soticlestat: C max; area under the total plasma concentration‐time curve from time 0 to infinity (AUC∞); and AUC from time 0 to time of the last quantifiable total plasma concentration (AUClast). The incidences of TEAEs and clinically significant abnormal values for laboratory evaluations, vital signs, ECG parameters, and Columbia‐Suicide Severity Rating Scale were secondary objectives. […]

For a further data set, the system named is plasma protein. Further details: method as in PMID 37771051. The conditions noted are these: human, cited from earlier work.
Details of data set [4]: method as in PMID 33837574. The conditions noted are these: healthy volunteers, doses 15 to 1350 mg; cited from earlier work.
Data set [5] addresses cholesterol 24‐hydroxylase (CH24H). The conditions noted are these: no method or reference given; read-out: CH24H inhibition IC50; cited from earlier work.
For data set [6] the following is noted: cited from earlier work.
[7] abbreviates: 300 mg dose of [14C]soticlestat.

Where two headings read alike, the source gives them in different places.

One may read the Vd/F as the volume of distribution divided by bioavailability. The term half-life denotes how long it takes for the measured level to halve. A low value points to fast loss. Broadly, the Tmax is the time from dosing to the highest level. For orientation: fraction unbound means free concentration divided by total concentration. A higher fraction unbound goes with much free substance. The IC50 is the concentration that inhibits the measured activity by half. Consider `O=C(c1cccnc1-c1ccncc1)N1CCC(O)(Cc2ccccc2)CC1` [soticlestat], for which, in the data set “clinical [1]”, the “Increase in total plasma exposure vs healthy matched participants (preliminary analysis)” value is on record as “approximately 3 fold”, the “Total plasma AUClast higher vs healthy participants (preliminary analysis)” value is “approximately 3 fold” and the “Total plasma AUC∞ higher vs healthy participants (preliminary analysis)” value was “approximately 3 fold”. For the same compound, in “clinical [1]” (po, 300 mg, Mean ± SD Vz/F, total plasma), the Vd/F came to 890 ± 1900 L. The same compound showed a half-life in the data set “clinical [1]” (po, 300 mg, Mean ± SD t½z, total plasma) of 219 ± 58.5 min. Moreover, the Tmax in the data set “clinical [1]” (po, 300 mg, Median (range) tmax, total plasma) came to 30 min. In addition, the fraction unbound in “clinical [2]” was 0.175. Moreover, the “TEAEs based on serum chemistry, hematology, coagulation, urinalysis, vital signs, ECG, or Columbia-Suicide Severity Rating Scale” value in data set [3] (all study arms) is on record as “no TEAEs”. The “Number of TEAEs considered study drug related” value in data set [3] (in vivo) was “two”. Moreover, in the data set on plasma protein (0.1 μg/mL), the “In vitro plasma protein binding” value is reported as 94.0%. The “In vitro plasma protein binding” value with plasma protein (1 μg/mL) is 93.4%. Besides, the “In vitro plasma protein binding” value with plasma protein (10 μg/mL) is on record as 70.6%. In the data set with plasma protein, the “Main binding protein in plasma” value is “mainly bound to human α‐1‐acid glycoprotein”. For the same compound, in data set [4], the “Mean plasma maximum concentration (Cmax)” value is 43.5 to 7950 ng/mL and the Terminal elimination half-life is 49.2 to 430 min. Also, the IC50 in data set [5] is 4.5 nM. Besides, in data set [6] (setting [7]), the “Administered dose recovered in urine as this substance” value is listed as 0.1%, the “Recovery of total radioactivity in feces” value is on record as 2.7% and the “Recovery of total radioactivity in urine” value was 94.8%. Besides, in data set [6], the Excreted in urine is on record as < 1%; the “Share of soticlestat metabolism accounted for by UGT1A9 and UGT2B4” value is listed as “approximately 90%”. Moreover, the Absolute bioavailability in data set [6] (healthy volunteers) is 12.6%.
